Several values for one entry are separate records, joined by “and”; a condition that tells them apart may be missing. Equal entries are not always repeated.
Target: T1, GPR139 (Gi3 activation) (Homo sapiens, UniProt Q6DWJ6)
T1 construct: expressed in transfected cells; host or cells: HEK293A (transient, Lipofectamine 2000)
T1 sequence (Q6DWJ6 1-353): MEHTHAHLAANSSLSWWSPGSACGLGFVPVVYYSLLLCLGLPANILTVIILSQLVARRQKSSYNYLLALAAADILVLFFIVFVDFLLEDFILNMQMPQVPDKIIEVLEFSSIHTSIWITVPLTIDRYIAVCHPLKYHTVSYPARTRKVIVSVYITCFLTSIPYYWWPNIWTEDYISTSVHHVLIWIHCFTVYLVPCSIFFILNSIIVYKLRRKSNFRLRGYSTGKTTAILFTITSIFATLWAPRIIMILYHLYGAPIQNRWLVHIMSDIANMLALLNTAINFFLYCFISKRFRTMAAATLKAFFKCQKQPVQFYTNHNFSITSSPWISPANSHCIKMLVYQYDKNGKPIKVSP
Assay: BRET G protein activation (dissociation) assay, Gi3, HEK293A
Assay type: cell-based
Conditions: for Emax: HEK293-A, normalized to JNJ-63533054 (JNJ(S)); for EC50: Supplementary Table 6, read-out: pEC50 Gi3 (converted); for G protein activation, Gi3: individual replicates
Procedure: Primary screening and pharmacological characterization of compounds were performed using a CHO-K1 cell line that stably expresses human GPR139 (GPR139-CHOk1). The GPR139-CHOk1 cell line was kindly provided by H. Lundbeck A/S, Denmark[24]. GPR139-CHOk1 cells were grown in Ham’s F-12 Kaighn’s Modification Medium (ThermoFisher #21127030) supplemented with 10% dialyzed fetal bovine serum (US origin, ThermoFisher #26400044), 100 units/mL Penicillin-Streptomycin (ThermoFisher #15140122), and 1 mg/mL Geneticin (ThermoFisher #11811031). […] M1R-CHOk1 cells were purchased from The Missouri S&T cDNA Resource Center (#CEM100TN00). M1R-CHOk1 cells were grown in Ham’s F12 Medium (ThermoFisher #21765029) supplemented with 10% fetal bovine serum (Brazilian origin, ThermoFisher #10270106), 100 units/mL Penicillin-Streptomycin, and 0.25 mg/mL Geneticin. HEK293A cells transiently transfected with GPR139 were used for additional pharmacological assessment of signaling pathways activated by GPR139. HEK239A cells were generously provided by Dr. Asuka Inoue, Tohoku University, Japan. HEK293A cells were grown in Dulbecco’s Modified Eagle Medium (ThermoFisher #31966047) supplemented with 10% dialyzed fetal bovine serum and 100 units/mL Penicillin-Streptomycin. Cell lines were maintained at 37 °C in humidified incubator equilibrated with 5% CO2.
The G protein dissociation assay developed by the lab of Kirill A. Martemyanov was used to measure the coupling of multiple G proteins by GPR139[57]. The assay was performed as described previously with minor modifications. HEK293A cells were reverse transfected 20–24 h prior to assay. 50,000 cells were plated in each well of white opaque tissue culture treated 96-well plates (PerkinElmer #6005680) previously coated with poly-D-lysine. Transfection solutions were prepared as described, and 10 µL transfection solution was mixed with 100 µL cells in each well. The cells in each well were transfected with 18.9 ng GPR139, 6.3 ng Venus 1-155 Gγ2, 6.3 ng Venus 159-239 Gβ1, 6.3 ng masGRK3ct-NanoLuc and 12.6 ng Gαi2, 12.6 ng Gαi3, 12.6 ng GαoA, 12.6 ng Gαq or 25.2 ng Gα12 using 375 nL Lipofectamine 2000 Transfection Reagent. Transfections with Gαq and Gα12 contained 6.3 ng DNA of the active subunit S1 of pertussis toxin (PTX-S1). Each transfection was normalized to 150 ng total DNA with pcDNA3.1. The BRET biosensors were a kind gift from the Martemyanov lab. On the day of the experiment the cells were washed with HEPES buffer. Test compounds were diluted in HEPES buffer from DMSO stocks (final DMSO concentration of maximally 0.3%). NanoLuc Luciferase substrate NanoGlo—furimazine (Promega #N1120) was diluted 1000-fold (final) in HEPES buffer. NanoGlo and test compounds were added, and measurements were performed after 10 s for Gi3, 15 s for Gi2 and GoA, 20 s for Gq, and 90 s for G12—the timepoint where maximal signal occurred with each G protein, ensuring proper determination of the potency for the G protein coupling. Simultaneous dual emission was measured at 535 nm and 475 nm on LUMIstar Omega Microplate Reader (BMG Labtech) at room temperature. The BRET ratio of 535 nm/475 nm (Venus/NanoLuc), reflecting the dissociation of the G protein heterotrimer, was used to determine the G protein activation. The basal BRET ratio obtained with buffer condition was subtracted from the absolute BRET ratio at a given test compound concentration, and the responses were normalized to the one obtained with 10 µM JNJ-63533054 for the activation of Gi2.
Pharmacological data and statistical analyses were performed in GraphPad Prism v9–10 (Graphpad Software Inc., San Diego, CA), which are also specifically described in the figure and table legends. […]

Emax	EC50	Compound	G protein activation, Gi3 (log [compound] M -4.5)	G protein activation, Gi3 (log [compound] M -5.0)	G protein activation, Gi3 (log [compound] M -5.5)	G protein activation, Gi3 (log [compound] M -6.0)	G protein activation, Gi3 (log [compound] M -6.5)	G protein activation, Gi3 (log [compound] M -7.0)	G protein activation, Gi3 (log [compound] M -7.5)	G protein activation, Gi3 (log [compound] M -8.0)	G protein activation, Gi3 (log [compound] M -4.5, listed as JNJ (S))	G protein activation, Gi3 (log [compound] M -5.0, listed as JNJ (S))	G protein activation, Gi3 (log [compound] M -5.5, listed as JNJ (S))	G protein activation, Gi3 (log [compound] M -6.0, listed as JNJ (S))	G protein activation, Gi3 (log [compound] M -6.5, listed as JNJ (S))	G protein activation, Gi3 (log [compound] M -7.0, listed as JNJ (S))	G protein activation, Gi3 (log [compound] M -7.5, listed as JNJ (S))	G protein activation, Gi3 (log [compound] M -8.0, listed as JNJ (S))
37 ± 1%	794 nM	Cc1cscc1-c1nc(CC(=O)N[C@H](C)c2ccccc2)no1 [1.1(R)]	39 % of JNJ-63533054 at Gi2 and 35 % of JNJ-63533054 at Gi2 and 34 % of JNJ-63533054 at Gi2	33 % of JNJ-63533054 at Gi2 and 34 % of JNJ-63533054 at Gi2 (2×)	30 % of JNJ-63533054 at Gi2 (2×) and 24 % of JNJ-63533054 at Gi2	21 % of JNJ-63533054 at Gi2 and 22 % of JNJ-63533054 at Gi2 and 20 % of JNJ-63533054 at Gi2	11 % of JNJ-63533054 at Gi2 (2×) and 12 % of JNJ-63533054 at Gi2	1 % of JNJ-63533054 at Gi2 and 4.71 % of JNJ-63533054 at Gi2 and 3.32 % of JNJ-63533054 at Gi2	-0.169 % of JNJ-63533054 at Gi2 and 1.37 % of JNJ-63533054 at Gi2 and 5.42 % of JNJ-63533054 at Gi2	-2.27 % of JNJ-63533054 at Gi2 and 2 % of JNJ-63533054 at Gi2 and 10 % of JNJ-63533054 at Gi2								
45 ± 3%	50.1 nM	Cc1cscc1-c1nc(CC(=O)N[C@@H](C)c2ccccc2)no1 [1.1(S)]	50 % of JNJ-63533054 at Gi2 and 43 % of JNJ-63533054 at Gi2 and 51 % of JNJ-63533054 at Gi2	46 % of JNJ-63533054 at Gi2 and 36 % of JNJ-63533054 at Gi2 and 43 % of JNJ-63533054 at Gi2	46 % of JNJ-63533054 at Gi2 and 40 % of JNJ-63533054 at Gi2 and 43 % of JNJ-63533054 at Gi2	44 % of JNJ-63533054 at Gi2 and 36 % of JNJ-63533054 at Gi2 and 42 % of JNJ-63533054 at Gi2	37 % of JNJ-63533054 at Gi2 (2×) and 36 % of JNJ-63533054 at Gi2	31 % of JNJ-63533054 at Gi2 and 26 % of JNJ-63533054 at Gi2 and 28 % of JNJ-63533054 at Gi2	18 % of JNJ-63533054 at Gi2 and 14 % of JNJ-63533054 at Gi2 and 21 % of JNJ-63533054 at Gi2	11 % of JNJ-63533054 at Gi2 and 5.42 % of JNJ-63533054 at Gi2 and 10 % of JNJ-63533054 at Gi2								
35 ± 6%	3980 nM	C[C@@H](NC(=O)CNC(=O)c1cccc(Cl)c1)c1ccccc1 [JNJ(R), reference compound]	36 % of JNJ-63533054 at Gi2 and 21 % of JNJ-63533054 at Gi2 and 35 % of JNJ-63533054 at Gi2	29 % of JNJ-63533054 at Gi2 and 16 % of JNJ-63533054 at Gi2 and 28 % of JNJ-63533054 at Gi2	20 % of JNJ-63533054 at Gi2 and 7 % of JNJ-63533054 at Gi2 and 23 % of JNJ-63533054 at Gi2	11 % of JNJ-63533054 at Gi2 (2×) and 4 % of JNJ-63533054 at Gi2	5.48 % of JNJ-63533054 at Gi2 and -1.21 % of JNJ-63533054 at Gi2 and 3.19 % of JNJ-63533054 at Gi2	3.32 % of JNJ-63533054 at Gi2 and -6 % of JNJ-63533054 at Gi2 and 6 % of JNJ-63533054 at Gi2	3 % of JNJ-63533054 at Gi2 and -5 % of JNJ-63533054 at Gi2 and 7.51 % of JNJ-63533054 at Gi2	-1 % of JNJ-63533054 at Gi2 and -3.25 % of JNJ-63533054 at Gi2 and 5 % of JNJ-63533054 at Gi2								
56 ± 4%	100 nM	CC(NC(=O)CNC(=O)c1cccc(Cl)c1)c1ccccc1 (stereo not shown) [JNJ-63533054, reference compound]									63 % of JNJ-63533054 at Gi2 and 48 % of JNJ-63533054 at Gi2 and 54 % of JNJ-63533054 at Gi2	59 % of JNJ-63533054 at Gi2 and 44 % of JNJ-63533054 at Gi2 and 57 % of JNJ-63533054 at Gi2	57 % of JNJ-63533054 at Gi2 and 41 % of JNJ-63533054 at Gi2 and 51 % of JNJ-63533054 at Gi2	52 % of JNJ-63533054 at Gi2 and 39 % of JNJ-63533054 at Gi2 and 42 % of JNJ-63533054 at Gi2	48 % of JNJ-63533054 at Gi2 and 28 % of JNJ-63533054 at Gi2 and 40 % of JNJ-63533054 at Gi2	37 % of JNJ-63533054 at Gi2 and 22 % of JNJ-63533054 at Gi2 and 29 % of JNJ-63533054 at Gi2	26 % of JNJ-63533054 at Gi2 and 11 % of JNJ-63533054 at Gi2 and 24 % of JNJ-63533054 at Gi2	10 % of JNJ-63533054 at Gi2 and 5.6 % of JNJ-63533054 at Gi2 and 14 % of JNJ-63533054 at Gi2

Reference: PMC12775434, “Ultra-large virtual screening unveils potent agonists of the neuromodulatory orphan receptor GPR139” (Nature Communications, 2025)
